US10766869B2, “Triazoles for the treatment of demyelinating dieases” (Vertex Pharmaceuticals Incorporated, priority 2015, dated 2020)
Read-outs that look alike come from different tables or passages of the source.

Test system: primary rat mixed cortical cells
Assay: In vitro myelination assay (MBP positive myelin strands, fold myelin pixels above background)
Type: cell-based
Settings: Rattus norvegicus; for fold induction at 1 µM: 1.0 μM compound; for fold induction at 10 µM: 10.0 μM compound
In short: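 P1 rat mixed cortical cultures (neurons, OPCs, oligodendrocytes, astrocytes, microglia) grown 14 days at 37 °C with compound, half-medium refreshed with compound on days 6 and 10. Fixed cells stained for MBP; MBP-positive myelin strand pixels per well quantified by automated imaging, reported as fold over no-compound baseline at 1.0 and 10.0 μM.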

[1] = relative to baseline of no added compound, read-out: Fold myelin pixels above background, 1.0 μM
[2] = relative to baseline of no added compound, read-out: Fold myelin pixels above background, 10.0 μM
[3] = read-out: Fold myelin pixels above background relative to baseline of no added compound
[4] = relative to baseline of no added compound, read-out: Fold myelin pixels above background

Cc1cc(Nc2ncn(-c3ccncn3)n2)cc(N2CCN(C3CC3)CC2)c1 [Compound 176, N-[3-(4-cyclopropylpiperazin-1-yl)-5-methyl-phenyl]-1-pyrimidin-4-yl-1,2,4-triazol-3-amine]
fold induction at 1 µM [1]: 100 to 1000
fold induction at 10 µM [2]: 100 to 1000

Cc1cc(Nc2ncn(-c3cc(F)cc(F)c3)n2)cc(NC2CCOC(C3CC3)C2)c1 (stereo not drawn) [Compound 918, N1-(2-cyclopropyltetrahydropyran-4-yl)-N3-[1-(3,5-difluorophenyl)-1,2,4-triazol-3-yl]-5-methyl-benzene-1,3-diamine]
fold induction at 1 µM [3]: 1 to 10
fold induction at 10 µM [3]: ≤ 1

Fc1ccc(-n2cnc(Nc3cc(C4CC4)nc(N4CC[C@@H](F)C4)c3)n2)cc1F [Compound 498, 2-cyclopropyl-N-[1-(3,4-difluorophenyl)-1,2,4-triazol-3-yl]-6-[(3R)-3-fluoropyrrolidin-1-yl]pyridin-4-amine]
fold induction at 1 µM [4]: 100 to 1000
fold induction at 10 µM [4]: 100 to 1000

CCc1cc(Nc2ncn(-c3ccc(F)cc3)n2)cc(N2CCN(C3COC3)CC2)c1 [Compound 14, N-[3-ethyl-5-[4-(oxetan-3-yl)piperazin-1-yl]phenyl]-1-(4-fluorophenyl)-1,2,4-triazol-3-amine]
fold induction at 1 µM [1]: 1000 to 10000
fold induction at 10 µM [2]: ≤ 1

Cc1cc(Nc2ncn(-c3cc(F)cc(F)c3)n2)cc(N2CCN([C@H]3CCOC3)CC2)c1 [Compound 530, 1-(3,5-difluorophenyl)-N-[3-methyl-5-[4-[(3S)-tetrahydrofuran-3-yl]piperazin-1-yl]phenyl]-1,2,4-triazol-3-amine]
fold induction at 1 µM [4]: 100 to 1000
fold induction at 10 µM [4]: 100 to 1000

Cc1cc(Nc2ncn(-c3cc(F)cc(F)c3)n2)cc(C2CCN(C3COC3)CC2)c1 [Compound 221, 1-(3,5-difluorophenyl)-N-[3-methyl-5-[1-(oxetan-3-yl)-4-piperidyl]phenyl]-1,2,4-triazol-3-amine]
fold induction at 1 µM [1]: 1 to 10
fold induction at 10 µM [2]: 100 to 1000

Fc1cc(F)cc(-n2cnc(Nc3cc(C4CC4)nc(N4CCCCC4)c3)n2)c1 [Compound 378, 2-cyclopropyl-N-[1-(3,5-difluorophenyl)-1,2,4-triazol-3-yl]-6-(1-piperidyl)pyridin-4-amine]
fold induction at 1 µM [1]: 1 to 10
fold induction at 10 µM [2]: 10 to 100

Clc1cc(Nc2ncn(-c3ccccc3)n2)cc(N2CCOCC2)c1 [Compound 335, N-(3-chloro-5-morpholino-phenyl)-1-phenyl-1,2,4-triazol-3-amine]
fold induction at 1 µM [1]: 1000 to 10000
fold induction at 10 µM [2]: 10 to 100

Cc1cc(Nc2ncn(-c3ccccc3)n2)cc(C2CCN(CC3(C)COC3)CC2)c1 [Compound 483, N-[3-methyl-5-[1-[(3-methyloxetan-3-yl)methyl]-4-piperidyl]phenyl]-1-phenyl-1,2,4-triazol-3-amine]
fold induction at 1 µM [4]: ≤ 1
fold induction at 10 µM [4]: ≤ 1

CC(=O)N1CCN(c2cc(C)cc(Nc3ncn(-c4cc(F)cc(F)c4)n3)c2)CC1 [Compound 370, 1-[4-[3-[[1-(3,5-difluorophenyl)-1,2,4-triazol-3-yl]amino]-5-methyl-phenyl]piperazin-1-yl]ethanone]
fold induction at 1 µM [1]: 1000 to 10000
fold induction at 10 µM [2]: 100 to 1000

Cc1cc(Nc2ncn(-c3cc(F)cc(F)c3)n2)cc(N2CCN(CCO)C(C)C2)c1 (stereo not drawn) [Compound 902, 2-[4-[3-[[1-(3,5-difluorophenyl)-1,2,4-triazol-3-yl]amino]-5-methyl-phenyl]-2-methyl-piperazin-1-yl]ethanol]
fold induction at 1 µM [3]: 1 to 10
fold induction at 10 µM [3]: ≤ 1

Cc1cc(Nc2ncn(-c3cc(F)cc(F)c3)n2)cc(N2CC3CC2CO3)c1 (stereo not drawn) [Compound 727, 1-(3,5-difluorophenyl)-N-[3-methyl-5-(2-oxa-5-azabicyclo[2.2.1]heptan-5-yl)phenyl]-1,2,4-triazol-3-amine]
fold induction at 1 µM [4]: 10 to 100
fold induction at 10 µM [4]: ≤ 1

Clc1cncc(-n2cnc(Nc3cc(C4CC4)cc(N4CCN(C5COC5)CC4)c3)n2)c1 [Compound 134, 1-(5-chloro-3-pyridyl)-N-[3-cyclopropyl-5-[4-(oxetan-3-yl)piperazin-1-yl]phenyl]-1,2,4-triazol-3-amine]
fold induction at 1 µM [1]: 100 to 1000
fold induction at 10 µM [2]: 10 to 100

Cc1cc(F)cc(-n2cnc(Nc3cc(C4CC4)cc(N4CCN(C5COC5)CC4)c3)n2)c1 [Compound 73, N-[3-cyclopropyl-5-[4-(oxetan-3-yl)piperazin-1-yl]phenyl]-1-(3-fluoro-5-methyl-phenyl)-1,2,4-triazol-3-amine]
fold induction at 1 µM [1]: 100 to 1000
fold induction at 10 µM [2]: ≤ 1

Cc1cc(Nc2ncn(-c3cc(F)cc(F)c3)n2)cc(N2CCOC(COC(C)C)C2)c1 (stereo not drawn) [Compound 927, 1-(3,5-difluorophenyl)-N-[3-[2-(isopropoxymethyl)morpholin-4-yl]-5-methyl-phenyl]-1,2,4-triazol-3-amine]
fold induction at 1 µM [3]: 10 to 100
fold induction at 10 µM [3]: 1 to 10

CC(F)(F)c1cc(Nc2ncn(-c3cc(F)cc(F)c3)n2)nc(N2CCN(C3COC3)CC2)c1 [Compound 685, 4-(1,1-difluoroethyl)-N-[1-(3,5-difluorophenyl)-1,2,4-triazol-3-yl]-6-[4-(oxetan-3-yl)piperazin-1-yl]pyridin-2-amine]
fold induction at 1 µM [4]: 10 to 100
fold induction at 10 µM [4]: 1 to 10

Cc1cc(Nc2ncn(-c3cc(F)cc(F)c3)n2)cc(N2CCN(C3CCCOC3)CC2)c1 (stereo not drawn) [Compound 199, 1-(3,5-difluorophenyl)-N-[3-methyl-5-(4-tetrahydropyran-3-ylpiperazin-1-yl)phenyl]-1,2,4-triazol-3-amine]
fold induction at 1 µM [1]: 100 to 1000
fold induction at 10 µM [2]: 100 to 1000

COCC1CCN(c2cc(C(F)(F)F)cc(Nc3ncn(-c4cccc(C(F)F)c4)n3)n2)CC1 [Compound 807, N-[1-[3-(difluoromethyl)phenyl]-1,2,4-triazol-3-yl]-6-[4-(methoxymethyl)-1-piperidyl]-4-(trifluoromethyl)pyridin-2-amine]
fold induction at 1 µM [3]: 1 to 10
fold induction at 10 µM [3]: 1 to 10

Cc1cc(Nc2ncn(-c3cc(F)cc(F)c3)n2)cc([C@]2(C)CN(C3COC3)CCO2)c1 (single isomer, unassigned) [Compound 750]
fold induction at 1 µM [4]: 1 to 10
fold induction at 10 µM [4]: 10 to 100

FC(F)c1cc(Nc2ncn(-c3cccnc3)n2)cc(N2CCN(C3COC3)CC2)c1 [Compound 209, N-[3-(difluoromethyl)-5-[4-(oxetan-3-yl)piperazin-1-yl]phenyl]-1-(3-pyridyl)-1,2,4-triazol-3-amine]
fold induction at 1 µM [1]: 100 to 1000
fold induction at 10 µM [2]: 100 to 1000

CCc1cc(Nc2ncn(-c3cccc(F)c3)n2)cc(N2CC(N3CCOCC3)C2)c1 [Compound 15, N-[3-ethyl-5-(3-morpholinoazetidin-1-yl)phenyl]-1-(3-fluorophenyl)-1,2,4-triazol-3-amine]
fold induction at 1 µM [1]: 100 to 1000
fold induction at 10 µM [2]: 10 to 100

[2H]C1([2H])N(C(=O)C2CC2)C([2H])([2H])C([2H])([2H])N(c2cc(C)cc(Nc3ncn(-c4cc(F)cc(F)c4)n3)c2)C1([2H])[2H] [Compound 961, cyclopropyl-[2,2,3,3,5,5,6,6-octadeuterio-4-[3-[[1-(3,5-difluorophenyl)-1,2,4-triazol-3-yl]amino]-5-methyl-phenyl]piperazin-1-yl]methanone]
fold induction at 1 µM [3]: 1 to 10
fold induction at 10 µM [3]: 1 to 10

CC1CCN(c2cc(Nc3ncn(-c4cc(F)cc(F)c4)n3)cc(C3CC3)n2)CC1 [Compound 244, 2-cyclopropyl-N-[1-(3,5-difluorophenyl)-1,2,4-triazol-3-yl]-6-(4-methyl-1-piperidyl)pyridin-4-amine]
fold induction at 1 µM [1]: 1 to 10
fold induction at 10 µM [2]: 10 to 100

Fc1cc(F)cc(-n2cnc(Nc3cc(N4CCN(C5COC5)CC4)cc(N4CCN(C5COC5)CC4)c3)n2)c1 [Compound 574, N-[3,5-bis[4-(oxetan-3-yl)piperazin-1-yl]phenyl]-1-(3,5-difluorophenyl)-1,2,4-triazol-3-amine]
fold induction at 1 µM [4]: 100 to 1000
fold induction at 10 µM [4]: 10 to 100

Fc1cccc(-n2cnc(Nc3cc(C(F)(F)F)cc(N4CCN(C5COC5)CC4)n3)n2)c1 [Compound 545, N-[1-(3-fluorophenyl)-1,2,4-triazol-3-yl]-6-[4-(oxetan-3-yl)piperazin-1-yl]-4-(trifluoromethyl)pyridin-2-amine]
fold induction at 1 µM [4]: 10 to 100
fold induction at 10 µM [4]: 10 to 100

COc1cc(-n2cnc(Nc3cc(C4CC4)cc(N4CCN(C5COC5)CC4)c3)n2)ncn1 [Compound 377, N-[3-cyclopropyl-5-[4-(oxetan-3-yl)piperazin-1-yl]phenyl]-1-(6-methoxypyrimidin-4-yl)-1,2,4-triazol-3-amine]
fold induction at 1 µM [1]: 100 to 1000
fold induction at 10 µM [2]: 10 to 100

Cc1cc(Nc2ncn(-c3cc(F)cc(F)c3)n2)cc(N2CC(O)C2)c1 [Compound 355, 1-[3-[[1-(3,5-difluorophenyl)-1,2,4-triazol-3-yl]amino]-5-methyl-phenyl]azetidin-3-ol]
fold induction at 1 µM [1]: 10 to 100
fold induction at 10 µM [2]: 100 to 1000

COc1ccc(-n2cnc(Nc3cc(C4CC4)nc(N4CCOCC4)c3)n2)cc1OC [Compound 354, 2-cyclopropyl-N-[1-(3,4-dimethoxyphenyl)-1,2,4-triazol-3-yl]-6-morpholino-pyridin-4-amine]
fold induction at 1 µM [1]: 1 to 10
fold induction at 10 µM [2]: 100 to 1000

Fc1cc(-n2cnc(Nc3cc(Cl)cc(N4CC(N5CCOCC5)C4)c3)n2)ccn1 [Compound 819, N-[3-chloro-5-(3-morpholinoazetidin-1-yl)phenyl]-1-(2-fluoro-4-pyridyl)-1,2,4-triazol-3-amine]
fold induction at 1 µM [3]: 10 to 100
fold induction at 10 µM [3]: 1 to 10

Cc1cc(Nc2ncn(-c3ccccc3F)n2)cc(N2CCN(C3COC3)CC2)c1 [Compound 223, 1-(2-fluorophenyl)-N-[3-methyl-5-[4-(oxetan-3-yl)piperazin-1-yl]phenyl]-1,2,4-triazol-3-amine]
fold induction at 1 µM [1]: 10 to 100
fold induction at 10 µM [2]: 10 to 100
